From paper PMC8151276, “An Integrated Approach toward NanoBRET Tracers for Analysis of GPCR Ligand Engagement” (Molecules, 2021)

Assays:
Type in all cases: binding
CXCR2 = target: T1, CXCR2 (Homo sapiens, UniProt P25025); assay: NanoBRET screen HiBiT-CXCR2 in HEK293; details: CXCR2
T1 construct: purchased Promega (in-house HiBiT-GPCR construct library, NanoBRET)
T1 sequence (P25025 1-360): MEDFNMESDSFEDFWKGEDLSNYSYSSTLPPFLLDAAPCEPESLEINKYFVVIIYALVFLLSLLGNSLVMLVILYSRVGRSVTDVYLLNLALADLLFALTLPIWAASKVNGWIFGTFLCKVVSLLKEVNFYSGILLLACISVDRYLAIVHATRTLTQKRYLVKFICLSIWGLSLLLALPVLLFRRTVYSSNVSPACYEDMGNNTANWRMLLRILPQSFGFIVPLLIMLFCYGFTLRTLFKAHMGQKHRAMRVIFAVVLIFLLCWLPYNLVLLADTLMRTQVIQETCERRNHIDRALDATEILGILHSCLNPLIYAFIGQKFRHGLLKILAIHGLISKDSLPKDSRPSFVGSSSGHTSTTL
Description: (§1) Each tracer candidate was screened across the entire library of HiBiT-GPCR constructs using NanoBRET as the detection modality. As depicted in Figure 4A, the specificity of interactions was evaluated through decrease in BRET due to competitive displacement of a bound tracer by excess parental compound. Each tracer was analyzed for binding to each HiBiT-GPCR fusion in the absence and in the presence of competing parental compound. Briefly, HEK293 cells were transfected with HiBiT-GPCR constructs diluted into promoterless DNA to reduce expression and maximize translocation to the cell surface. Each tracer candidate was then screened at concentrations of 1 μM and 0.1 μM across cells expressing these fusions. Cells were treated for 1.5 h with tracer either alone or in the presence of 20 μM competing parental compound (i.e., control). BRET was measured upon addition of purified LgBiT and subsequent complementation with HiBiT genetically fused to a GPCR. The specificity of interactions was assessed through a decrease in BRET signal due to competitive displacement of the bound tracer. To further gauge the robustness of these interactions, the fold response over the control (i.e., BRETtracer/BRETcontrol) was calculated. We chose a 1.5-fold response, which translates to ≥7-fold signal over noise as the minimal threshold required to score an interaction as positive. […]. Below we highlight the screening results obtained for our exemplary fluorescent tracers based on Clozapine, Amitriptyline and AZD1283.
(§2) HiBiT-GPCR DNA constructs were diluted in 10 mM Tris pH 8 to a final concentration of 0.01 μg/μL, arrayed in 96-well plates and stored at −20 °C. For transfection, HEK293 cells were suspended in Opti-MEM (without phenol red) supplemented with 2% fetal bovine serum (Seradigm) and 100 units/mL penicillin–streptomycin (Gibco) at a final concentration of 220,000 cells/mL and dispensed into white 96-well plates at 90 μL/well. Subsequent transfections and screens were carried using an Agilent Bravo Automated Liquid Handling Platform. First, the 96-well HiBiT DNA arrays were diluted 25-fold in Opti-MEM (without serum or phenol red) to a final concentration of 0.0004 μg/μL and 20 μL of the diluted DNAs were transferred into new 96-well plates. Next, promoterless carrier DNA (1 μg/μL) was diluted 25-fold (0.04 μg/μL) and then dispensed into the diluted arrays at 20 μL/well. Following brief mixing, Viafect transfection reagent (Promega) diluted 16-fold into Opti-MEM was dispensed into the plates at 40 μL/well. After mixing by pipetting, plates were incubated for 10 min on the pipetting station deck. The DNA-transfection reagent complexes were then added to plates containing cells. To facilitate the screen, 10 μL of DNA-transfection reagent complexes were added in duplicates to the top 4 and bottom 4 rows, resulting in two identical 48-well arrays per plate. Plates with transfected cells were incubated for 18–20 h at 37 °C/5% CO2. A screen of each tracer across the entire library using two different concentrations requires duplicate plates of transfected cells. Depending on the number of tracers being screened, transfections can be scaled up using the same ratios. The next day, for each tracer, four 20× screening solutions in tracer dilution buffer (Promega) were prepared: two duplicates at final concentration of 20 μM and two duplicates at a final concentration of 2 μM. A competing unmodified compound was added to one of each duplicate at a final concentration of 400 μM. The four resulting solutions were diluted 4-fold in Opti-MEM without serum or phenol red to generate 5× solutions (5 µM and 0.5 µM tracer +/− 100 μM competing compound). To screen the library, a BioTek MultiFlo FX liquid dispenser was used to dispense 22.5 µL of tracer solution to the top 4 rows and 22.5 µL tracer + competing compound solution to the 4 bottom rows. Plates were briefly mixed on an orbital shaker and incubated for 1.5 h at room temperature. […]

C5AR2 = target: T2, C5AR2 (Homo sapiens, UniProt Q9P296); assay: NanoBRET screen HiBiT-C5AR2 in HEK293; details: C5AR2
T2 construct: purchased Promega (in-house HiBiT-GPCR construct library, NanoBRET)
T2 sequence (Q9P296 whole entry): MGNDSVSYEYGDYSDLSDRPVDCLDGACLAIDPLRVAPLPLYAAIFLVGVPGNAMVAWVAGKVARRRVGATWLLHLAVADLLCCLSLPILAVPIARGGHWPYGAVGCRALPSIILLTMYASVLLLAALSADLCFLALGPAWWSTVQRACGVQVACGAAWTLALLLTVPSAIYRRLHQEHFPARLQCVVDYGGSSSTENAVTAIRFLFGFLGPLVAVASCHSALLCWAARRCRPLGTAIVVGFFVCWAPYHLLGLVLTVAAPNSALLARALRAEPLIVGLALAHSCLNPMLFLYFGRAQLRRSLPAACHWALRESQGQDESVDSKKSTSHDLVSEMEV
Description: as §1, §2

FZD1 = target: T3, FZD1 (Homo sapiens, UniProt Q9UP38); assay: NanoBRET screen HiBiT-FZD1 in HEK293; details: FZD1
T3 construct: purchased Promega (in-house HiBiT-GPCR construct library, NanoBRET)
T3 sequence (Q9UP38 70-647): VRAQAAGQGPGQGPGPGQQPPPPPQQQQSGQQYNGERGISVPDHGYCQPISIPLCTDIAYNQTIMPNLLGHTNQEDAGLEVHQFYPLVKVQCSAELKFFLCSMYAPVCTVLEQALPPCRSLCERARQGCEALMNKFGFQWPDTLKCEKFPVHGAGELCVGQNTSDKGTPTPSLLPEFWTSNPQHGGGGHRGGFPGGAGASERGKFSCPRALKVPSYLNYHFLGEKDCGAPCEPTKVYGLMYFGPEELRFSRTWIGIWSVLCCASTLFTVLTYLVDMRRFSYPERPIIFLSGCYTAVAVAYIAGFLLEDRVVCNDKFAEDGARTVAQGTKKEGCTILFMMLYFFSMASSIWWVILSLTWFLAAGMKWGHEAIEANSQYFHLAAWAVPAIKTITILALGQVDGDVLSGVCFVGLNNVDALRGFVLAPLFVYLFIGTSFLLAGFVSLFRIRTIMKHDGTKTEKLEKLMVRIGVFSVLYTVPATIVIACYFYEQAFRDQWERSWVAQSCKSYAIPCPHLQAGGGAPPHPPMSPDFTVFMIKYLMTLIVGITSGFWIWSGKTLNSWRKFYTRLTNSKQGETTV
Description: as §1, §2

HTR4 = target: T4, HTR4 (Homo sapiens, UniProt Q13639); assay: NanoBRET screen HiBiT-HTR4 in HEK293; details: HTR4
T4 construct: purchased Promega (in-house HiBiT-GPCR construct library, NanoBRET)
T4 sequence (Q13639 whole entry): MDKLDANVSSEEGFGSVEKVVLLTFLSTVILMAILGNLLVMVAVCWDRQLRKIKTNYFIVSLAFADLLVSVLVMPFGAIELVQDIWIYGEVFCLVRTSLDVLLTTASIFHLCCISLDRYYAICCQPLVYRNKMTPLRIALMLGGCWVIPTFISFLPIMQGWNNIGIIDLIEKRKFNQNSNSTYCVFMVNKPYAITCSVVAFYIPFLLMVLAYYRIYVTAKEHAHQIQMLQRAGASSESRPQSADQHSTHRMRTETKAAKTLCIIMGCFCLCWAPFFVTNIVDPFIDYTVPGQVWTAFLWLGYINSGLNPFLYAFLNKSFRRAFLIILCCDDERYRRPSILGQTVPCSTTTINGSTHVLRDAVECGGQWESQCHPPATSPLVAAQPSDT
Description: as §1, §2

TACR3 = target: T5, TACR3 (Homo sapiens, UniProt P29371); assay: NanoBRET screen HiBiT-TACR3 in HEK293; details: TACR3
T5 construct: purchased Promega (in-house HiBiT-GPCR construct library, NanoBRET)
T5 sequence (P29371 1-465): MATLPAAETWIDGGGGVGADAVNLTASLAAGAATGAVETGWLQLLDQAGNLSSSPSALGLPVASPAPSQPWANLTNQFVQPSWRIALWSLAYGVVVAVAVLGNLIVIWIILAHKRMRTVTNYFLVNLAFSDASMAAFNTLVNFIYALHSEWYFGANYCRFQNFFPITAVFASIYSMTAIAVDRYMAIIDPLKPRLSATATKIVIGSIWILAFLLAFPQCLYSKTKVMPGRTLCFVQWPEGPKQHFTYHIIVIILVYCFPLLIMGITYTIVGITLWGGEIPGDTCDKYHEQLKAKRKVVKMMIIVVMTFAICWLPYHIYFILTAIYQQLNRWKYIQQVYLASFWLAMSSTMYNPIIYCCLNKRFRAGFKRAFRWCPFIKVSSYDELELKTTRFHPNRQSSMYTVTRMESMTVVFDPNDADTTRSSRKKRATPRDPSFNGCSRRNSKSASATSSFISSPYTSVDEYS
Description: as §1, §2

| Structure (SMILES) | NanoBRET Fold Response (CXCR2; tracer 0.1μM) | NanoBRET Fold Response (CXCR2; tracer 1μM) | NanoBRET Fold Response (C5AR2; tracer 0.1μM) | NanoBRET Fold Response (C5AR2; tracer 1μM) | NanoBRET Fold Response (FZD1; tracer 0.1μM) | NanoBRET Fold Response (FZD1; tracer 1μM) | NanoBRET Fold Response (HTR4; tracer 0.1μM) | NanoBRET Fold Response (HTR4; tracer 1μM) | NanoBRET Fold Response (TACR3; tracer 0.1μM) | NanoBRET Fold Response (TACR3; tracer 1μM) | also measured |
| --- | --- | --- | --- | --- | --- | --- | --- | --- | --- | --- | --- |
| CN1CCN(C2=Nc3cc(Cl)ccc3N(CC(=O)NCCOCCOCCOCCOCCNC(=O)CCc3ccc4n3[B-](F)(F)[N+]3=C(c5ccc[nH]5)C=CC3=C4)c3ccccc32)CC1 [Clozapine-c-2-NB590] | – | – | – | – | – | – | – | – | – | – | NanoBRET Fold Response (CXCR2; 0.1μM tracer): 1.03; NanoBRET Fold Response (CXCR2; 1μM tracer): 0.92; NanoBRET Fold Response (C5AR2; 0.1μM tracer): 0.99; NanoBRET Fold Response (C5AR2; 1μM tracer): 1.00; NanoBRET Fold Response (FZD1; 0.1μM tracer): 1.02; NanoBRET Fold Response (FZD1; 1μM tracer): 1.06; NanoBRET Fold Response (HTR4; 0.1μM tracer): 1.02; NanoBRET Fold Response (HTR4; 1μM tracer): 1.07; NanoBRET Fold Response (TACR3; 0.1μM tracer): 1.00; NanoBRET Fold Response (TACR3; 1μM tracer): 1.00 |
| O=C(CCOCCOCCOCCOCCNC(=O)CCc1ccc2n1[B-](F)(F)[N+]1=C(c3ccc[nH]3)C=CC1=C2)NCCCN1CCN(C2=Nc3ccccc3Oc3ccc(Cl)cc32)CC1 [Loxapine-a-2-NB590] | 1.06 | 0.98 | 0.95 | 1.07 | 1.17 | 1.03 | 1.02 | 1.04 | 1.08 | 1.11 | – |
| COc1ccccc1N1CCN(CCCCN2C(=O)c3ccc(CNC(=O)CCOCCNC(=O)c4ccc(CNC(=O)CCc5ccc6n5[B-](F)(F)[N+]5=C(c7ccc[nH]7)C=CC5=C6)cc4)cc3C2=O)CC1 [NAN-190-3-NB590] | 1.10 | 0.86 | 0.87 | 1.07 | 0.83 | 1.01 | 1.00 | 1.03 | 0.97 | 0.96 | – |
| O=C(CCc1ccc2n1[B-](F)(F)[N+]1=C(c3ccc[nH]3)C=CC1=C2)NCc1ccc(C(=O)NCCOCCC(=O)N[C@@H]2CC[C@@]3(O)[C@H]4Cc5ccc(O)c6c5[C@@]3(CCN4CC3CC3)[C@H]2O6)cc1 [Naltrexone-3-NB590] | 0.81 | 0.78 | 0.95 | 1.01 | 1.07 | 1.05 | 0.97 | 1.05 | 1.19 | 0.93 | – |
| Cc1cc2c(s1)Nc1ccccc1N=C2N1CCN(CCCNC(=O)CCOCCOCCOCCOCCNC(=O)CCc2ccc3n2[B-](F)(F)[N+]2=C(c4ccc[nH]4)C=CC2=C3)CC1 [Olanzapine-a-2-NB590] | 0.97 | 1.08 | 0.95 | 0.97 | 0.95 | 1.04 | 1.02 | 1.02 | 1.00 | 0.95 | – |
| O=C(CCc1ccc2n1[B-](F)(F)[N+]1=C(c3ccc[nH]3)C=CC1=C2)NCc1ccc(C(=O)NCCOCCOCCNCC(O)COc2cccc3ccccc23)cc1 (stereo not shown) [Propranolol-3-NB590] | – | – | – | – | – | – | – | – | – | – | NanoBRET Fold Response (CXCR2; 0.1μM): 1.07; NanoBRET Fold Response (CXCR2; 1μM): 1.03; NanoBRET Fold Response (C5AR2; 0.1μM): 1.00; NanoBRET Fold Response (C5AR2; 1μM): 1.01; NanoBRET Fold Response (FZD1; 0.1μM): 0.97; NanoBRET Fold Response (FZD1; 1μM): 0.98; NanoBRET Fold Response (HTR4; 0.1μM): 1.26; NanoBRET Fold Response (HTR4; 1μM): 1.41; NanoBRET Fold Response (TACR3; 0.1μM): 1.06; NanoBRET Fold Response (TACR3; 1μM): 0.99 |
| O=C(CCc1ccc2n1[B-](F)(F)[N+]1=C(c3ccc[nH]3)C=CC1=C2)NCCOCCOCCNC(=O)OCCOCCN1CCN(C2=Nc3ccccc3Sc3ccccc32)CC1 [Quetiapine-a-2-NB590] | 1.03 | 0.97 | 1.04 | 0.77 | 1.14 | 0.96 | 0.98 | 1.00 | 1.04 | 0.83 | – |
| Cc1nc2n(c(=O)c1CCN1CCC(c3noc4cc(F)ccc34)CC1)CCCC2OC(=O)NCCOCCOCCOCCOCCNC(=O)CCc1ccc2n1[B-](F)(F)[N+]1=C(c3ccc[nH]3)C=CC1=C2 (stereo not shown) [Risperidone-2-NB590] | 1.09 | 0.99 | 1.06 | 1.07 | 1.02 | 1.00 | 1.08 | 1.51 | 1.04 | 1.10 | – |
| CC(C)N(CC[C@H](c1ccccc1)c1cc(CCNC(=O)CCOCCOCCOCCOCCNC(=O)CCc2ccc3n2[B-](F)(F)[N+]2=C(c4ccc[nH]4)C=CC2=C3)ccc1O)C(C)C [Tolterodine-2-NB590] | 0.96 | 0.98 | 0.98 | 0.92 | 0.97 | 0.97 | 0.92 | 1.00 | 1.11 | 1.08 | – |
| CC(C)N(CC[C@H](c1ccccc1)c1cc(CCNC(=O)c2ccc(CNC(=O)CCc3ccc4n3[B-](F)(F)[N+]3=C(c5ccc[nH]5)C=CC3=C4)cc2)ccc1O)C(C)C [Tolterodine-BZ-NB590] | 0.99 | 1.06 | 1.05 | 1.08 | 1.04 | 0.95 | 0.94 | 0.99 | 0.98 | 1.06 | – |
